# Measurements: patent US8501775B2, “Anthelmintics for preventing parasitic infections in humans and animals” (SALTIGO GmbH, priority 2000, dated 2013)
# Test system: cercariae of Schistosoma mansoni
# Assay: not given
# Settings: topical, monkeys; literature statement; cited from earlier work
row,SMILES,action against the penetration of cercariae
1,O=C(Nc1ccc([N+](=O)[O-])cc1Cl)c1cc(Cl)ccc1O [Niclosamide],acts against the penetration of cercariae

# Test system: not given
# Assay: not given
# Settings: literature / regulatory statement; cited from earlier work
row,SMILES,toxicity / hazard
1,Oc1c(Cl)cc(Cl)c(Cl)c1Cc1c(O)c(Cl)cc(Cl)c1Cl [hexachlorophene],toxic on contact with the skin and when swallowed
2,O=C(Nc1ccc([N+](=O)[O-])cc1Cl)c1cc(Cl)ccc1O [Niclosamide],may possibly cause inheritable genetic damage

# Test system: cercariae of Schistosoma mansoni
# Assay: not given
# Settings: literature statement; cited from earlier work
row,SMILES,effect on cercariae of Schistosoma mansoni
1,Oc1c(Cl)cc(Cl)c(Cl)c1Cc1c(O)c(Cl)cc(Cl)c1Cl [hexachlorophene],lethal effect
2,"CCN(CC)C(=O)c1cccc(C)c1 [DEET, N,N-Diethyl-m-toluamide]",acts against cercariae

# Test system: Schistosoma mansoni cercariae
# Assay: Activity against Schistosoma mansoni cercariae (survival/mobility observed with a stereomagnifier)
# Parameters: key: no effect during the entire test period of 120 minutes; 1: weak effect (the cercariae have a strongly reduced mobility); 2: good effect (the cercariae are only slightly mobile and bent); 3: full effect (the cercariae are completely immobile)
# Settings: 500 μl/l final concentration of the active compounds; test period of 120 minutes
# Method: Activity Against Schistosoma mansoni Cercariae
# Snails (Biomphalaria glabrata) were infected by incubating each of them with 8 miracidia in 10 ml of water overnight. About 6 to 9 weeks after the infection, cercariae were obtained by irradiating the snails, which had been kept in darkness, with light, followed by collection of the swarming cercariae within 2 hours.
# Such an amount of cercariae-containing water (1 or 2 ml, see below) was added to the test batches that each batch contained about 100 to 150 cercariae.
# 9 ml of aquarium water was then added, and the batch was shaken vigorously. After (delayed) addition of 1 ml of cercariae suspension, survival of the cercariae was in each case observed immediately using a stereomagnifier.
row,SMILES,Assessment
1,CCC(C)COC(=O)N(C)CCCO (stereo not shown),1
2,CCCCOC(=O)N1CCCCC1CCO (stereo not shown),3
3,CCCCOC(=O)N(C)CCCO,1
4,CCC(C)OC(=O)N1CCCCC1CCO (stereo not shown),2
5,C=CCCOC(=O)N(C)CCCO,2
6,CN(CCCO)C(=O)OC1CCCCC1,1
7,CC(C)(C)OC(=O)N1CCCCC1CCO (stereo not shown),3
8,C=CCOC(=O)N1CCCCC1CCO (stereo not shown),3
